Here are results for one molecule from patent US20040030161A1, “Recovery and purification of anhydro sugar alcohols from a vapor stream” (priority 2002, published 2004).

Structures are written as SMILES.

The format of the data set is physicochemical. Here is the method: The basis for this process is illustrated for isosorbide in FIG. 1, where the upper curve represents the solubility of isosorbide in water (as percent by weight isosorbide) on the x-axis vs. temperature on the y-axis. The lower curve represents the composition of the condensate (as percent by weight isosorbide) when the condensation is conducted at a pressure of about 14 mm Hg. […] The condensate is a highly concentrated solution of isosorbide and contains only a small fraction as water. Thus, by conducting the condensation under these conditions, most of the isosorbide from, for example, a 20-30 weight percent isosorbide aqueous vapor stream is recovered, leaving most of the water in the vapor phase. The amount of isosorbide left in the vapor is negligibly small because of the very low vapor pressure of isosorbide, on the order of only about 0.001 mm Hg, at a condensation temperature of about 45° C.

`O[C@@H]1CO[C@H]2[C@@H]1OC[C@@H]2O` [isosorbide, 1,4:3,6-dianhydrosorbitol]: the “solubility of isosorbide in water (percent by weight isosorbide)” value is on record as roughly 100%.
